Measured values from patent US12275685B2, “Oligo-benzamide analogs and their use in cancer treatment” (Board of Regents, The University of Texas System, priority 2018, dated 2025).
Like-named read-outs stand apart in the source and are kept apart here.

How the values were obtained:
[1] = test system: BC cells expressing WT-ERα and MT-ERα; test: Clonogenic assay; type: cell-based; conditions: 100 nM
Protocol: FIG. 53: Effect of 100 nM TX-542 on clonogenic survival of WT-ERα and MT-ERα BC cell lines.
(§1) The 200 nM dose for these drugs reflects the level at which each of these drugs has a significant effect on spheroid formation in the MCF-7 WT-ERa cells. Taken together, these studies indicate that TX-542 has significant activity against both WT-ERα and MT-ERα driven ERα+ BC cell lines and is a worthwhile candidate for further study.

[2] = test system: MT-ERα expressing BC cells; test: Apoptosis by annexin staining; type: cell-based; conditions: within 72 h after treatment, 200 nM
Protocol: FIG. 55: Effect of 200 nM TX-542 on apoptosis of MT-ERα expressing BC cells.
as §1

ERα = type: cell-based; conditions: MT-ERα, 200 nM
[3] = test system: human mammary epithelial cells (HMEC); test: Antiproliferative assay of TX-542 in HMEC; type: cell-based
Protocol: (§2) TX-542. TX-542 was potent (IC50˜20-50 nM) as an antiproliferative agent against expressing MT-ERα, both in genetically modified MCF-7 cells with one WT-ERα allele and one MT-ERα allele introduced by CRISPR and genetically modified ZR-75 or T47-D cells in which both copies of WT-ERα alleles were replaced using CRISPR with MT-ERα. TX-542 had no activity against ER-null (SUM-159 or MDA-MB-231 cells) or non-tumorigenic breast epithelial cells, such as human mammary epithelial cells (HMEC). […] In addition, these agents are not able to consistently target all the MT-ERα forms in distinct genetic contexts, as shown in FIG. 52 and as reported by others.

[4] = test system: estrogen receptor-positive breast cancer; test: Growth inhibition of ER-positive breast cancer; type: cell-based
MT-ERα [5] = test: ChIP of MT-ERα DNA binding, TX-542; type: cell-based
[6] = test system: ER-null (SUM-159 or MDA-MB-231 cells); test: Antiproliferative assay in ER-null cells; type: cell-based
Text: (§3) FIG. 52: Comparative efficacy of TX-542 and SERDs in BC cells expressing WT and/or MT ERα: Using CRISPR-Cas9, both copies of WT ERα genes were knocked out in ZR-75 and T47-D, while only one copy of WT Era was knocked out in MCF-7 cells. Following knockout of WT ERα clones with stable expression of either Y537S ERα MT or the D538G ERα MT were selected. […] ERα-negative TNBC cells (SUM-159 and MDA-MB-231) were used as controls. Dose response curves were generated for ERX-11, TX-542 and SERDs using cell titer glo assays. IC50 values for each cell line and drug were calculated and tabulated. Tam=tamoxifen, ICI=fulvestrant, GDC-0810=Genentech SERD, AZD-9496 Astra Zeneca SERD, RAD-1901=Radius SERD, Palbo=Palbociclib. IC50 values<50 nM are shown in red.
as §2

[7] = Pharmacokinetic profile of TX-542; type: in vivo
Protocol: FIG. 58: PK properties of TX-542 indicate a half-life in plasma of 8 h and accumulation over time in tumor.
(§4) To establish the pharmacokinetic (PK) profile of TX-542, the inventors worked with the UTSW preclinical pharmacology core to characterize pharmacologic properties of TX-542 (FIG. 58). These studies indicated an 8-h half-life of TX-542 in the plasma, with drug detectable in both the liver and kidney after intraperitoneal (i.p.) administration.

Protein binding = type: in vitro ADME
[8] = test system: MT-ERα expressing BC metastasis; test: Metastatic models (intracardiac, intratibial injection); type: in vivo, mice
Protocol: FIG. 63: Following intracardiac injection of luciferase-tagged ZR-75 MT-ERα Y537S tumors, mice are imaged five at a time under 2% isoflurane gas anesthesia. Each mouse is injected with D-Luciferin and imaged 10-15 minutes after the injection. BLI signal is quantified in regions of interest (ROIs) drawn around tumors, specific areas (for example cranial, thoracic or abdominal), whole body or tissues ex vivo and the signal is expressed as photons per second, representing the flux radiating omni-directionally from the user-defined region. Images are analyzed using Living Image 4.3.1 (PerkinElmer, Waltham, MA) software. Once the tumors were established (40,000 luminescene counts at 30 seconds exposure), mice were treated either with vehicle or TX-542. […] Relative luminescence counts are mapped (middle panel). Mice were sacrificed once symptomatic and the survival curves for vehicle treated (black) or TX-542 treated (red) are graphed (right panel) (n=6 in each group).
Once tumors were established, daily treatment of mice with either vehicle or TX-542 (10 mg/kg/ip) were performed. Results are shown and graphed (n=6).
(§5) Since MT-ERα is primarily expressed in metastases, the inventors used metastatic models to evaluate effect of TX-542 on the development and progression of metastasis.

MT-ERα [9] = test: ERE luciferase reporter gene assay, TX-542; type: cell-based; conditions: minimal promoter with three copies of ERE
[10] = test system: WT-ERα ZR-75 or MT-ERα MCF-7 xenografts; test: TX-542 in ERα BC xenografts; type: in vivo, nude mice
Protocol: FIGS. 59A-B: MCF-7 MT-ERa D538G and Y537S xenograft tumors were injected into the mammary fat pad of nude mice. Once the tumors were established (100 mm^3), treatment with either vehicle or TX-542 (10 mg/kg/ip) was commenced and their effect on tumor growth and mice body weights were graphed (n=9 per group).
as §4

MCF-7 MT-ERα Y537S cells = type: cell-based; conditions: 200 nM
[11] = test system: BC cells expressing MT-ERα (MCF-7, ZR-75, T47-D); test: Cell titer glo antiproliferative assay in MT-ERα BC cells; type: cell-based
Text: as §3, §2

[12] = test system: MCF-7 MT-ERα Y537S and D538G cells; type: cell-based; conditions: comparators at 200 nM in MCF-7 MT-ERα Y537S cells
[13] = test system: BC cells expressing MT-ERα; test: Boyden chamber invasion assay; type: cell-based
Text: FIG. 62: Effect of TX-542 on invasiveness of BC cells expressing Erα mutants in a Boyden chamber assay.
as §5

Q: For NCCC(=O)Nc1ccc(C(=O)Nc2ccc(C(=O)NCCc3ccc4ccccc4c3)cc2OCC2CCCCC2)cc1OCCO [TX-542], which clonogenic survival [1] is on record?
A: significantly reduced the survival

Q: And the apoptotic cell death [2]?
A: induced apoptotic cell death

Q: And the “onset of effect on MT-ERα levels” value (ERα)?
A: not noticeable until 24 h

Q: What about the “activity against non-tumorigenic breast epithelial cells” value [3] of the same molecule?
A: no activity

Q: And the “growth inhibition of ER-positive breast cancer” value [4]?
A: strong growth inhibition

Q: And the “specificity for ER-positive cells” value [4]?
A: high specificity

Q: And the “MT-ERα DNA binding” value (MT-ERα [5])?
A: blocks both basal and estradiol-induced MT-ERα DNA binding

Q: And the “activity against ER-null cells” value [6]?
A: no activity

Q: What about the “level in tumor tissue” value ([7]; 24 h after the last dose, daily i.p. 10 mg/kg) of the same molecule?
A: > 0.1 mg/g

Q: What about the “time to steady state levels in tumor” value ([7]; MCF-Y537S xenografts, daily i.p. 10 mg/kg) of the same molecule?
A: 5 days

Q: And the half-life ([7]; mouse, plasma, intraperitoneal)?
A: 8 h

Q: What about the concentration at 24 h ([7]; mouse, tumor, intraperitoneal, 10 mg/kg, 24 h after the last dose, read-out: corresponding tumor concentration) of the same molecule?
A: > 200 nM

Q: What about the bound to proteins (Protein binding) of the same molecule?
A: 75%

Q: What about the “growth of lung and bone metastasis” value ([8]; 10 mg/kg/ip) of the same molecule?
A: decrease the growth of lung metastasis

Q: And the “animals that formed mets” value ([8]; within 4 weeks, treatment started immediately after intracardiac injection)?
A: 1/6

Q: What about the ERE-driven transcription (MT-ERα [9]) of the same molecule?
A: decrease transcription

Q: What about the “growth of established xenografts” value ([10]; 10 mg/kg/ip) of the same molecule?
A: potent activity

Q: What about the mouse body weights ([10]; 10 mg/kg/ip) of the same molecule?
A: no effect on mouse body weights

Q: What about the “renal and liver parameters, histopathology, clinical chemistry” value ([10]; treated animals) of the same molecule?
A: lack of change in renal and liver parameters

Q: And the “soft agar colony formation” value (MCF-7 MT-ERα Y537S cells)?
A: potently reduced soft agar colony formation

Q: And the IC50 ([11]; MCF-7, ZR-75 or T47-D cells expressing MT-ERα, read-out: IC50, antiproliferative)?
A: 20 to 50 nM

Q: What about the IC50 ([11]; MT-ERα alone (ZR-75 and T47-D) or with WT-ERa (MCF-7), read-out: IC50 in multiple MT-ERα models) of the same molecule?
A: < 50 nM

Q: And the “spheroid size or architecture” value [12]?
A: disrupted spheroid architecture

Q: What about the “invasion of BC cells expressing MT-ERα” value [13] of the same molecule?
A: potently affects the invasion
